Drawing on patent US11098055B2, “Ester ACC inhibitors and uses thereof” (Gilead Apollo, LLC, priority 2015, dated 2021), this text covers IC50, MIC and IC90 for 16 compounds.

The target of one assay is fACC2 (UniProt Q00955). Nature of the assay: In vitro ACC2 inhibition assay (ADP-Glo), fungal ACC2. In kind it is biochemical. The procedure, abridged:
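ADP-Glo luminescent ADP detection with 5 nM ACC2, 20 μM ATP, 20 μM acetyl-CoA, 12 mM NaHCO3, 2 mM DTT, 5% DMSO; compound (30 μM-0.00051 μM, 11 points) preincubated 15 min, reaction 60 min at room temperature. Percent inhibition against DMSO and positive controls; IC50 by four-parameter nonlinear fit.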

In a further assay the test system is C. krusei ATCC 6258. Nature of the assay: Anti-Fungal (Candida) Activity Assay, broth microtiter MIC. Type of assay: cell-based, Candida krusei. The note with it: Pichia kudriavzevii, ATCC6258, 48 h, 3 replicates, MIC read at 48 h. In short, it runs like this:
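Broth microdilution per CLSI M27-A3 in RPMI 1640 + MOPS, at a final inoculum of 2.5×10^3 CFU/mL. Compound DMSO stocks were diluted in water to a 128 μg/mL working solution. MIC was read visually against the growth control at 48 h.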

The test system of another assay is Botrtyis cinerea (Bc). The assay is described as follows: Growth inhibition assay of fungal pathogens. In kind it is cell-based. To be noted: 48 h, read-out: Concentration at 90% Inhibition Bc. In short, it runs like this: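 Spores, or mycelial plugs for Rhizoctonia, in 17% V8 medium (¼ PDB for plugs) were exposed to compound at final 50, 10 and 2 ppm or 2, 0.4 and 0.08 ppm, with 2% DMSO. Growth was read by OD600 with blank subtraction plus visual rating; percent inhibition at 48 h is relative to 2% DMSO control.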

In brackets after ≈: the same amount, converted by molar mass. Like-named read-outs stand apart in the source and are kept apart here.

Sequence of fACC2 (Q00955 whole entry): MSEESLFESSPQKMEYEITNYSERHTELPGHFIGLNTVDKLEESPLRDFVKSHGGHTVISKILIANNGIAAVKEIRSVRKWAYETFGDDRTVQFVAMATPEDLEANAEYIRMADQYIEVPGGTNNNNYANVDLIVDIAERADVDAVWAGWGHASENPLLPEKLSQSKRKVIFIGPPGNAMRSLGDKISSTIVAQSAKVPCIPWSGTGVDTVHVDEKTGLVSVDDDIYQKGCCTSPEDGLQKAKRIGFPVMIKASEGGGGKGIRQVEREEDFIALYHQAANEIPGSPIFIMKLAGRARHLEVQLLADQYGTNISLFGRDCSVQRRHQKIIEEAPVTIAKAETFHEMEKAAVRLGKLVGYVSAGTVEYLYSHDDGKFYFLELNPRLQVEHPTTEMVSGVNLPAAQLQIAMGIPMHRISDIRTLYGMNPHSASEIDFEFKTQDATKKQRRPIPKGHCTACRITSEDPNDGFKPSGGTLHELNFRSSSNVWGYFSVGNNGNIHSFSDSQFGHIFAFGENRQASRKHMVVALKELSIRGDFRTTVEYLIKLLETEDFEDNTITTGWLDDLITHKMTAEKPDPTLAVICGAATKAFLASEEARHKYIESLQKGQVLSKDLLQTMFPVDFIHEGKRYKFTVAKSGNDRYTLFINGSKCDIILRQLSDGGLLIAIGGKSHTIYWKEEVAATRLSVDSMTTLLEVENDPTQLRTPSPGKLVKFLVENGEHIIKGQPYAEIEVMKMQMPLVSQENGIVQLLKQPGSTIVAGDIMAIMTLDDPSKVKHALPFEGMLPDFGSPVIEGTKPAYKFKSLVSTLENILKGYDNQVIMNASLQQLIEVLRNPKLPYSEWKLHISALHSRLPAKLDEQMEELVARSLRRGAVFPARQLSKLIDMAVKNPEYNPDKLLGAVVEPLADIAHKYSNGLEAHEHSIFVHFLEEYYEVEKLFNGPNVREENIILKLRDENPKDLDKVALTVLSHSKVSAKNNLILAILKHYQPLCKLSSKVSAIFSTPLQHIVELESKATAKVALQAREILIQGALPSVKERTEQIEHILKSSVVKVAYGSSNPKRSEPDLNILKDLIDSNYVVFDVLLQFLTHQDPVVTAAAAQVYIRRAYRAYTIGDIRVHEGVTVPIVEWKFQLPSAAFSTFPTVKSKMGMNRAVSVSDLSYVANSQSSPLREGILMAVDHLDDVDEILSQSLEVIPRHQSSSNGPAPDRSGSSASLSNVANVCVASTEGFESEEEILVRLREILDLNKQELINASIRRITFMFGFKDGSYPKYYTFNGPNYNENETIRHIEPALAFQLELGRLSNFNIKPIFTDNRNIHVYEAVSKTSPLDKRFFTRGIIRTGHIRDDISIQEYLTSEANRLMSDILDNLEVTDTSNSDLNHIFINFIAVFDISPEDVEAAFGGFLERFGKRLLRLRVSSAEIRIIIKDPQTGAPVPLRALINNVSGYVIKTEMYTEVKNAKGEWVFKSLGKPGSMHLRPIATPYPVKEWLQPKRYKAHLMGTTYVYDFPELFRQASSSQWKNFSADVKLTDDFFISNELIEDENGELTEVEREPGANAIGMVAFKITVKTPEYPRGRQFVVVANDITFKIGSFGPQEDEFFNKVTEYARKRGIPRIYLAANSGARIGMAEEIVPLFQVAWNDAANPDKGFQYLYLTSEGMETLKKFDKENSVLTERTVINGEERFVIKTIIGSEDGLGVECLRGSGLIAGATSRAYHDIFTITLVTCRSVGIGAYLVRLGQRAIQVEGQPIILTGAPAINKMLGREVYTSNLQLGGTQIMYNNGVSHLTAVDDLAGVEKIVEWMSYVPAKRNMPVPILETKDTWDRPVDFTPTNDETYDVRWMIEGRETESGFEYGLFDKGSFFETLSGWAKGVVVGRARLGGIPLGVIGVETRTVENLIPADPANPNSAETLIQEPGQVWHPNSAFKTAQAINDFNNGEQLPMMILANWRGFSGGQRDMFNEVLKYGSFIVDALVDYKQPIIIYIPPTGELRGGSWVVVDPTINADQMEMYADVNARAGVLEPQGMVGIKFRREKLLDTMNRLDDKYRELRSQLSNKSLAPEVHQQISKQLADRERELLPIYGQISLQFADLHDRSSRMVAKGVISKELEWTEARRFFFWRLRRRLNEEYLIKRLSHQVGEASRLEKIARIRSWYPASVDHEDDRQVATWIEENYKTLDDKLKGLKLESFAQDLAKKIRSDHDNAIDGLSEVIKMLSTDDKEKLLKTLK

By IC50 is commonly meant the point on the concentration scale where inhibition reaches its midpoint. A high value points to lower potency. The term MIC denotes the least concentration at which growth counts as inhibited. Lower therefore signals inhibition by little substance. At fACC2 (Table 2b (additional results)), `CCOC(=O)c1sc2c(c1C)c(=O)n(C(C)(C)C(=O)NC(C)C)c(=O)n2CCc1cc(F)ccc1OC` [Compound I-40, ethyl 1-(5-fluoro-2-methoxyphenethyl)-3-(1-(isopropylamino)-2-methyl-1-oxopropan-2-yl)-5-methyl-2,4-dioxo-1,2,3,4-tetrahydrothieno[2,3-d]pyrimidine-6-carboxylate] returned an IC50 of 3 to 10 nM. In the assay with C. krusei ATCC 6258 (Table 3b (additional results)), this compound had an MIC of 2.1 to 4 µg/mL (≈ 3.94 to 7.5 µM). In addition, the IC90 in the assay with Botrtyis cinerea (Bc) (Table 4b) came to 2 µg/mL (≈ 3.75 µM).
The compound `CCOC(=O)c1sc2c(c1C)c(=O)n([C@H](C)C(N)=O)c(=O)n2C[C@H](OCCC#N)c1cc(F)ccc1OC` [Compound I-26, ethyl 3-((R)-1-amino-1-oxopropan-2-yl)-1-((R)-2-(2-cyanoethoxy)-2-(5-fluoro-2-methoxyphenyl)ethyl)-5-methyl-2,4-dioxo-1,2,3,4-tetrahydrothieno[2,3-d]pyrimidine-6-carboxylate] returned an IC50 against fACC2 (Table 2b (additional results)) of 0.3 to 3 nM. Besides, the MIC against C. krusei ATCC 6258 (Table 3b (additional results)) lay within 0.25 to 1 µg/mL (≈ 0.457 to 1.83 µM). The IC90 with Botrtyis cinerea (Bc) (Table 4b) is 10 µg/mL (≈ 18.3 µM).
For `CCOC(=O)c1sc2c(c1C)c(=O)n(C(C)(C)C(=O)N1CCCC1)c(=O)n2C[C@H](O)c1cc(F)ccc1OC` [Compound I-22, (R)-ethyl 1-(2-(5-fluoro-2-methoxyphenyl)-2-hydroxyethyl)-5-methyl-3-(2-methyl-1-oxo-1-(pyrrolidin-1-yl)propan-2-yl)-2,4-dioxo-1,2,3,4-tetrahydrothieno[2,3-d]pyrimidine-6-carboxylate], in that order: 0.3 to 3 nM, 2.1 to 4 µg/mL (≈ 3.74 to 7.12 µM) and 2 µg/mL (≈ 3.56 µM).
With `CCNC(=O)[C@H](C)n1c(=O)c2c(C)c(C(=O)OCC)sc2n(C[C@H](OCCC#N)c2cc(F)ccc2OC)c1=O` [Compound I-42, ethyl 1-((R)-2-(2-cyanoethoxy)-2-(5-fluoro-2-methoxyphenyl)ethyl)-3-((S)-1-(ethylamino)-1-oxopropan-2-yl)-5-methyl-2,4-dioxo-1,2,3,4-tetrahydrothieno[2,3-d]pyrimidine-6-carboxylate], the IC50 against fACC2 (Table 2b (additional results)) fell in the range of 0.3 to 3 nM. The compound also came in with an MIC in the assay with C. krusei ATCC 6258 (Table 3b (additional results)) of 2.1 to 4 µg/mL (≈ 3.65 to 6.96 µM). The IC90 in the assay with Botrtyis cinerea (Bc) (Table 4b) is 0.4 µg/mL (≈ 0.696 µM).
Turning to `CCOC(=O)c1sc2c(c1C)c(=O)n(C(C)(C)C(=O)NC(C)C)c(=O)n2C[C@H](OC[C@H](C)C#N)c1cc(F)ccc1OC` [Compound I-34, ethyl 1-((R)-2-((R)-2-cyanopropoxy)-2-(5-fluoro-2-methoxyphenyl)ethyl)-3-(1-(isopropylamino)-2-methyl-1-oxopropan-2-yl)-5-methyl-2,4-dioxo-1,2,3,4-tetrahydrothieno[2,3-d]pyrimidine-6-carboxylate], at fACC2 (Table 2b (additional results)), the IC50 lay in the range of 0.3 to 3 nM. Besides, the MIC in the assay with C. krusei ATCC 6258 (Table 3b (additional results)) lay within 2.1 to 4 µg/mL (≈ 3.41 to 6.49 µM). For the same compound, in the assay with Botrtyis cinerea (Bc) (Table 4b), the IC90 worked out at 0.4 µg/mL (≈ 0.649 µM).
For `CCOC(=O)c1sc2c(c1C)c(=O)n([C@@H](C)C(=O)NC(C)C)c(=O)n2C[C@H](OCCC#N)c1cc(F)ccc1OC` [Compound I-20, ethyl 1-((R)-2-(2-cyanoethoxy)-2-(5-fluoro-2-methoxy-phenyl)ethyl)-3-((S)-1-(isopropylamino)-1-oxopropan-2-yl)-5-methyl-2,4-dioxo-1,2,3,4-tetrahydrothieno[2,3-d]pyrimidine-6-carboxylate], in that order: 0.3 to 3 nM, 1.1 to 2 µg/mL (≈ 1.87 to 3.4 µM) and 2 µg/mL (≈ 3.4 µM).
As to `CCNC(=O)C(C)(C)n1c(=O)c2c(C)c(C(=O)OCC)sc2n(C[C@H](O)c2cc(F)ccc2OC)c1=O` [Compound I-39, ethyl (R)-3-(1-(ethylamino)-2-methyl-1-oxopropan-2-yl)-1-(2-(5-fluoro-2-methoxyphenyl)-2-hydroxyethyl)-5-methyl-2,4-dioxo-1,2,3,4-tetrahydrothieno[2,3-d]pyrimidine-6-carboxylate], at fACC2 (Table 2b (additional results)), the IC50 fell in the range of 0.3 to 3 nM. In the assay with C. krusei ATCC 6258 (Table 3b (additional results)), this compound had a minimum inhibitory concentration (MIC) of 0.25 to 1 µg/mL (≈ 0.467 to 1.87 µM). For the same compound, in the assay on Botrtyis cinerea (Bc) (Table 4b), the IC90 worked out at 10 µg/mL (≈ 18.7 µM).
The compound `CCOC(=O)c1sc2c(c1C)c(=O)n([C@@H](C)C(N)=O)c(=O)n2C[C@H](OCCC#N)c1cc(F)ccc1OC` [Compound I-25, ethyl 3-((S)-1-amino-1-oxopropan-2-yl)-1-((R)-2-(2-cyanoethoxy)-2-(5-fluoro-2-methoxyphenyl)ethyl)-5-methyl-2,4-dioxo-1,2,3,4-tetrahydrothieno[2,3-d]pyrimidine-6-carboxylate] yielded an IC50 against fACC2 (Table 2b (additional results)) of 0.3 to 3 nM. In the assay on C. krusei ATCC 6258 (Table 3b (additional results)), this compound yielded an MIC of 1.1 to 2 µg/mL (≈ 2.01 to 3.66 µM). Moreover, the IC90 in the assay on Botrtyis cinerea (Bc) (Table 4b) is at least 50 µg/mL.
Consider `CCNC(=O)C(C)(C)n1c(=O)c2c(C)c(C(=O)OCC)sc2n(C[C@H](OC(C)C)c2ccccc2OC)c1=O` [Compound I-4, (R)-ethyl 3-(1-(ethylamino)-2-methyl-1-oxopropan-2-yl)-1-(2-isopropoxy-2-(2-methoxyphenyl)ethyl)-5-methyl-2,4-dioxo-1,2,3,4-tetrahydrothieno[2,3-d]pyrimidine-6-carboxylate], for which the IC50 against fACC2 (Table 2a) and against fACC2 (Table 2b (additional results)) was 3 to 10 nM in each case. For the same compound, the MIC in the assay on C. krusei ATCC 6258 (Table 3a) and against C. krusei ATCC 6258 (Table 3b (additional results)) was 2.1 to 4 µg/mL (≈ 3.75 to 7.15 µM) each time. Also, the IC90 with Botrtyis cinerea (Bc) (Table 4a) and in the assay on Botrtyis cinerea (Bc) (Table 4b) was 2 µg/mL (≈ 3.57 µM) in each case.
As to `CCOC(=O)c1sc2c(c1C)c(=O)n(C(C)(C)C(=O)NC(C)C)c(=O)n2C[C@H](OCC(C)(C)C#N)c1cc(F)ccc1OC` [Compound I-37, ethyl (R)-1-(2-(2-cyano-2-methylpropoxy)-2-(5-fluoro-2-methoxyphenyl)ethyl)-3-(1-(isopropylamino)-2-methyl-1-oxopropan-2-yl)-5-methyl-2,4-dioxo-1,2,3,4-tetrahydrothieno[2,3-d]pyrimidine-6-carboxylate], the IC50 against fACC2 (Table 2b (additional results)) was 0.3 to 3 nM. This compound came in with an MIC against C. krusei ATCC 6258 (Table 3b (additional results)) of 2.1 to 4 µg/mL (≈ 3.33 to 6.34 µM). Besides, in the assay with Botrtyis cinerea (Bc) (Table 4b), the IC90 was 0.4 µg/mL (≈ 0.634 µM).
`CCOC(=O)c1sc2c(c1C)c(=O)n(C(C)(C)C(=O)NC(C)C)c(=O)n2C[C@H](OC[C@@H](C)C#N)c1cc(F)ccc1OC` [Compound I-35, ethyl 1-((R)-2-((S)-2-cyanopropoxy)-2-(5-fluoro-2-methoxyphenyl)ethyl)-3-(1-(isopropylamino)-2-methyl-1-oxopropan-2-yl)-5-methyl-2,4-dioxo-1,2,3,4-tetrahydrothieno[2,3-d]pyrimidine-6-carboxylate] came in with an IC50 on fACC2 (Table 2b (additional results)) of 0.3 to 3 nM. In addition, the MIC in the assay with C. krusei ATCC 6258 (Table 3b (additional results)) was in the range of 2.1 to 4 µg/mL (≈ 3.41 to 6.49 µM). The IC90 with Botrtyis cinerea (Bc) (Table 4b) amounted to 0.4 µg/mL (≈ 0.649 µM).
The like results for `CCOC(=O)c1sc2c(c1C)c(=O)n(C(C)(C)C(=O)NC(C)C)c(=O)n2C[C@H](OCCS(C)(=O)=O)c1cc(F)ccc1OC` [Compound I-36, ethyl (R)-1-(2-(5-fluoro-2-methoxyphenyl)-2-(2-(methylsulfonyl)ethoxy)ethyl)-3-(1-(isopropylamino)-2-methyl-1-oxopropan-2-yl)-5-methyl-2,4-dioxo-1,2,3,4-tetrahydrothieno[2,3-d]pyrimidine-6-carboxylate] were, in that order, 0.3 to 3 nM, 2.1 to 4 µg/mL (≈ 3.2 to 6.1 µM) and 2 µg/mL (≈ 3.05 µM).
Take `CCNC(=O)C(C)(C)n1c(=O)c2c(C)c(C(=O)OCC)sc2n(C[C@H](OCCC#N)c2cc(F)ccc2OC)c1=O` [Compound I-29, (R)-ethyl 1-(2-(2-cyanoethoxy)-2-(5-fluoro-2-methoxy-phenyl)ethyl)-3-(1-(ethylamino)-2-methyl-1-oxopropan-2-yl)-5-methyl-2,4-dioxo-1,2,3,4-tetrahydrothieno[2,3-d]pyrimidine-6-carboxylate]: at fACC2 (Table 2b (additional results)), the IC50 fell in the range of 0.3 to 3 nM. This compound also gave an MIC with C. krusei ATCC 6258 (Table 3b (additional results)) of 2.1 to 4 µg/mL (≈ 3.57 to 6.8 µM). Moreover, the IC90 in the assay on Botrtyis cinerea (Bc) (Table 4b) came out at 2 µg/mL (≈ 3.4 µM).
`CCOC(=O)c1sc2c(c1C)c(=O)n([C@H](C)C(=O)NC(C)C)c(=O)n2C[C@H](O)c1cc(F)ccc1OC` [Compound I-43, ethyl 1-((R)-2-(5-fluoro-2-methoxyphenyl)-2-hydroxyethyl)-3-((R)-1-(isopropylamino)-1-oxopropan-2-yl)-5-methyl-2,4-dioxo-1,2,3,4-tetrahydrothieno[2,3-d]pyrimidine-6-carboxylate] showed an IC50 at fACC2 (Table 2b (additional results)) of 0.3 to 3 nM. The compound also came in with an MIC in the assay on C. krusei ATCC 6258 (Table 3b (additional results)) of 2.1 to 4 µg/mL (≈ 3.92 to 7.47 µM). The IC90 in the assay with Botrtyis cinerea (Bc) (Table 4b) came to 2 µg/mL (≈ 3.73 µM).
On to `CCOC(=O)c1sc2c(c1C)c(=O)n(C(C)(C)C(=O)N1CCCCC1)c(=O)n2C[C@H](OC(C)C)c1ccccc1OC` [Compound I-6, (R)-ethyl 1-(2-isopropoxy-2-(2-methoxyphenyl)ethyl)-5-methyl-3-(2-methyl-1-oxo-1-(piperidin-1-yl)propan-2-yl)-2,4-dioxo-1,2,3,4-tetrahydrothieno[2,3-d]pyrimidine-6-carboxylate], for which the figures for the IC50 against fACC2 (Table 2a) and against fACC2 (Table 2b (additional results)) were 0.6 to 3 nM and 0.3 to 3 nM, respectively. For the same compound, the MIC in the assay on C. krusei ATCC 6258 (Table 3a) and against C. krusei ATCC 6258 (Table 3b (additional results)) was 2.1 to 4 µg/mL (≈ 3.5 to 6.67 µM) each time. Further, the IC90 with Botrtyis cinerea (Bc) (Table 4a) and with Botrtyis cinerea (Bc) (Table 4b) was 0.4 µg/mL (≈ 0.667 µM) throughout.
For `CCOC(=O)c1sc2c(c1C)c(=O)n(C(C)(C)C(=O)NC(C)C)c(=O)n2C[C@H](OCCO)c1cc(F)ccc1OC` [Compound I-18, (R)-ethyl 1-(2-(5-fluoro-2-methoxyphenyl)-2-(2-hydroxy-ethoxy)ethyl)-3-(1-(isopropylamino)-2-methyl-1-oxopropan-2-yl)-5-methyl-2,4-dioxo-1,2,3,4-tetrahydrothieno[2,3-d]pyrimidine-6-carboxylate], at fACC2 (Table 2a), the 50% inhibitory concentration (IC50) was in the range of 0.6 to 3 nM. Besides, the MIC in the assay on C. krusei ATCC 6258 (Table 3a) and with C. krusei ATCC 6258 (Table 3b (additional results)) was 0.25 to 1 µg/mL (≈ 0.421 to 1.68 µM) throughout. Moreover, the IC90 in the assay on Botrtyis cinerea (Bc) (Table 4a) and in the assay on Botrtyis cinerea (Bc) (Table 4b) was 2 µg/mL (≈ 3.37 µM) throughout.
